Results published in patent publication US7745420B2, “Methods for increasing in vivo efficacy of oligonucleotides and inhibiting inflammation in mammals” (Topigen Pharmaceutique, Inc., priority 2001, dated 2010).
[DAP] = 2,6-diaminopurine base replacing adenine; [I] = hypoxanthine (inosine)

Columns and labels:
rat model of asthma [1] = conditions: see WO 99/66037; cited from earlier work
rat model of asthma [2] = experiment: Cellular influx into the lungs after antigen challenge (lung lavage differential cell count); format: in vivo; conditions: 200 μg intratracheal before ovalbumin challenge; for inhibition of recruitment of eosinophils: bronchoalveolar lavage after 15 hours
Method: (§1) Active sensitization of rats was performed by subcutaneous injection of 1 ml of saline containing 1 mg of chicken egg ovalbumin (OA) (Sigma, St. Louis, Mo.) and 3.5 mg of aluminum hydroxide gel (BDH Chemicals, Poole, UK).
On day 14 after sensitization with ovalbumin, after general anesthesia with 65 mg/Kg pentothal and endotracheal intubation, ovalbumin challenge is performed by injecting 200 micrograms of ovalbumin in 60 μl intratracheally. After 8 hours or 15 hours, the rats are again intubated after general anesthesia and a lung lavage consisting of 5 times 5 ml instillation of 0.9% saline is performed. Cells are washed, counted and centrifuged onto slides in a Cytospin III™. A differential cell count is performed.
On day 14, the rats were intubated after general anesthesia with pentothal (65 mg/kg) and received 200 μg of ASA4, ASA4-DAP (5′-DapCTCDapTDapTTCDapTDapGGGTG-3′; SEQ ID NO:27), AS141-DAP (5′-TGGCDapCTTTDapGGTGGCTG-3′; SEQ ID NO:29), mismatch AS141-DAP (5′-GTGCCDapTTTGDapGTGGCTG-3′; SEQ ID NO:30), combination of ASA4-DAP and AS141-DAP (total of 100 μg) or saline in 50 μl of 0.9% NaCl intratracheally. Twenty minutes later ovalbumin challenge is performed by injecting 200 μg of ovalbumin in 50 μl of 0.9% saline intratracheally. After 15 hours, the rats were again intubated after general anesthesia, and a lung lavage consisting of 5 times 5 ml instillation was performed. Cells were washed, counted and centrifuged onto slides in a Cytospin III™. A differential cell count was finally performed.

rat model of asthma [3] = experiment: Leukotriene D4 responsiveness after antigen (ovalbumin) challenge; format: in vivo; conditions: 200 μg intratracheal, 15 hours after ovalbumin challenge; for airway responsiveness to leukotriene D4: vs control challenged and DAP mismatch treated rats
Method: as §1
(§2) The equipment and methodology for measuring pulmonary resistance was as previously described (Renzi, P. M., et al. Am. Rev. Respir. Dis 146: 163-169, 1992). General anesthesia was induced with either pentothal (50 mg/kg) or urethane (1.1 g/kg) intra-peritoneally. Endo-tracheal intubation was then performed using a 6 cm length of PE-240™ polyethylene catheter. A heating pad was used to maintain constant body temperature and rectal temperature was monitored continuously with an electronic thermometer (Telethermometer™, Yellow Springs Instrument Co., Yellowsprings, Ohio). Lung resistance (RL) was measured during spontaneous tidal breathing with the animals in the lateral decubitus position. Flow was measured by placing the tip of the tracheal tube inside a small Plexiglass™ box (265 ml in volume). A Fleish™ No. 0 pneumotachograph coupled to a differential pressure transducer (MP-45+2 cm H20; Validyne Corp, Northridge, Calif.) was attached to the other end of the box to measure airflow, and volume was obtained by numerical integration of the flow signal. Changes in esophageal pressure were measured by using a saline-filled catheter and a differential pressure transducer (Sanborn 267 BC™; Hewlett Packard, Waltham, Mass.). The other port of the transducer was connected to the box. The esophageal catheter consisted of polyethylene tubing (PE-200™) 20-cm long attached to a shorter length (6 cm) of tubing (PE-100™). Transpulmonary pressure was computed as the difference between esophageal and box pressure. The airway response was evaluated from RL, which was determined by fitting the equation of motion of the lung by multiple linear regression using commercial software (RHT-Infodat Inc., Montreal, Quebec, Canada).
We have previously shown that the antisense ASA4 (5′-ACTCATATTC ATAGGGTG-3′; SEQ ID NO:26) directed against the rat CCR3 receptor was effective at inhibiting eosinophil influx into the lungs after antigen challenge (see WO 99/66037). We employed the same oligonucleotide sequences for these experiments. […] After 15 hours, the rats were again intubated after general anesthesia, baseline lung resistance measured and doubling concentrations of leukotriene D4 injected intratracheally (50 ng to 1600 ng) until baseline lung resistance doubled (EC200).

[4] = tested on: common Beta chain of human GM-CSF, IL-3 and IL-5 receptor; experiment: Semi-quantitative RT-PCR of common beta chain mRNA in U937 cells treated with antisense; format: cell-based; conditions: 10 μmol, six hours, compared to AS107
Method: Experiments were performed to assess whether antisense oligonucleotides described in international application WO 99/66037 (incorporated herein) directed against the common beta sub-unit of the IL-3, IL-5 and GM-CSF receptor, could inhibit the expression and the function of this receptor when modified by replacing adenosine by either 2-amino-2′-deoxyadenosine or inosine. TF-1 and U937 cells express high levels of GM-CSF receptors. In addition, TF-1 cells are dependent on GM-CSF for survival. These cells were cultured in RPMI 1640 supplemented with 10% heat-inactivated fetal calf serum, penicillin, streptomycin and 1-glutamine at 37° C. in 5% CO2 (the TF-1 cells were supplemented with GM-CSF). […] The sequence for 107A-DAP was: 5′-GGGTCTGCDapGCGGGDapTGGT-3′ (SEQ ID NO:21); the sequence for 107A-inosine (107A-I) was: 5′-GGGTCTGCIGCGGGIT GGT-3′ (SEQ ID NO:22). The cells were retrieved and washed 3 times. RNA was then retrieved and the presence of the beta chain of the receptor was assessed by semi-quantitative RT-PCR.

[5] = tested on: sensitized Brown Norway rats; experiment: Airway responsiveness (lung resistance) to intratracheal adenosine, DAP nucleoside and DAP analogs; format: in vivo, rat
Method: as §1, §2
On day 14 post-sensitization, rats were anesthetized with pentothal (65 mg/kg), intubated, and baseline RL was measured. Rats were given incremental doses intratracheally of adenosine (CAS 58-61-7), 2,6-diaminopurine hemisulfate salt (CAS 69369-16-0), DAP (2-amino-2-deoxyadenosine; CAS 4546-70-7), 2-amino-9-(B-D-2′-deoxyribo furanosyl)purine (CAS 3616-24-8), 7-Deaza-2′deoxyadenosine (CAS 60129-59-1), N6-Methyl-2′-deoxyadenosine (CAS 2002-35-9), 2-aminoadenosine/2,6-diamunopurine riboside (CAS 2096-10-08) over the dose range of 0.125 μg to 100 μg in 50 μl of either saline or saline plus acetic acid. Immediately after each dose RL was measured. DAP was dissolved as follows: 3 mg of DAP was combined with 100 μl of acetic acid, adjusted to 1.5 to 3 ml by the addition of saline, and heated to 70° C. This gave a final concentration of 1 to 2 μg/μl. Dilutions were performed in the same buffer. Control animals received saline with acetic acid at the same final concentration as indicated.

[6] = tested on: sensitized but unchallenged Brown Norway rats; experiment: Cellular influx into the lungs after adenosine or DAP administration; format: in vivo, rat
Method: Fourteen days after sensitization, the rats were intubated after anesthesia with pentothal 65 mg/kg, and 100 μg of adenosine or 2-amino-2′-deoxyadenosine or of 2-amino-2′deoxyadenosine followed 10 minutes later by adenosine or of saline was injected intratracheally in 50 μl. Fifteen hours later, the rats were intubated after general anesthesia with pentothal, and a lung lavage was performed and the cells were counted as described above.
In another experiment, groups of six sensitized but unchallenged Brown Norway rats were anesthetized with pentothal and endotracheally intubated. The rats then received an intratracheal injection of either (1) saline (control), (2) 100 μg of adenosine, (3) 100 μg of 2-amino-2′-deoxyadenosine (DAP) or (4) 100 μg of DAP followed by 100 μg of adenosine 10 minutes later. The rats were awakened, re-anesthetized and intubated 15 hours later for a lung lavage. Cells that were present in media collected from the lavage, were counted and a differential was obtained on Cytospin∩ slides.

[7] = at 5 fold lower concentration (1 μg)
[8] = at peak adenosine toxicity (5 μg)
[9] = 100 μg intratracheal, lung lavage 15 hours later

Molecule: 5′-ACTCATATTC ATAGGGTG-3′ (antisense ACTCATATTCATAGGGTG; DNA, all phosphorothioate, methylation of C not given here) [ASA4]
- inhibition of the eosinophil influx that occurs after antigen challenge (rat model of asthma [1]): inhibit the eosinophil influx
- inhibition of recruitment of eosinophils (rat model of asthma [2]): 84%
- lymphocyte recruitment (rat model of asthma [2]; lavage after 15 hours): significant decrease
- macrophage recruitment (rat model of asthma [2]; lavage after 15 hours): strong trends for decreases
- neutrophil recruitment (rat model of asthma [2]; lavage after 15 hours): strong trends for decreases

Molecule: 5′-DapCTCDapTDapTTCDapTDapGGGTG-3′ (antisense NCTCNTNTTCNTNGGGTG; DNA, [DAP] at 1, 5, 7, 11, 13, all phosphorothioate, methylation of C not given here) [ASA4-DAP]
- inhibition of recruitment of eosinophils (rat model of asthma [2]): 83%
- decrease of lymphocyte recruitment (rat model of asthma [2]; lavage after 15 hours): 74%
- macrophage recruitment (rat model of asthma [2]; lavage after 15 hours): tended to decrease
- neutrophil recruitment (rat model of asthma [2]; lavage after 15 hours): tended to decrease
- airway responsiveness to leukotriene D4, compared to unchallenged rats (rat model of asthma [3]): no different
- airway responsiveness to leukotriene D4, compared to unmodified ASA4 (rat model of asthma [3]): tended to be more effective
- airway responsiveness to leukotriene D4 (rat model of asthma [3]): significantly decreased

Molecule: 5′-GGGTCTGCIGCGGGIT GGT-3′ (DNA GGGTCTGCNGCGGGNTGGT; DNA, [I] at 9, 15, backbone and methylation of C not given here) [AS107-I, reference compound]
- inhibiting mRNA expression, semi-quantitative PCR [4]: not effective

Molecule: 5′-TGGCACTTTAGGTGGCTG-3′ (phosphorothioate backbone, further chemistry not given here) [AS141]
- inhibition of the eosinophil influx that occurs after antigen challenge (rat model of asthma [1]): inhibit the eosinophil influx
- lymphocyte recruitment (rat model of asthma [2]; lavage after 15 hours): significant decrease
- macrophage recruitment (rat model of asthma [2]; lavage after 15 hours): significant decrease
- neutrophil recruitment (rat model of asthma [2]; lavage after 15 hours): strong trends for decreases
- recruitment of eosinophils (rat model of asthma [2]; lavage after 15 hours): effectively inhibited
- airway responsiveness to leukotriene D4 (rat model of asthma [3]): decreased significantly

Molecule: 5′-TGGCDapCTTTDapGGTGGCTG-3′ (antisense TGGCNCTTTNGGTGGCTG; diaminopurine (Dap) replaces adenosine at two places, sugar and backbone not given here, further chemistry not given here) [AS141-DAP]
- macrophage recruitment (rat model of asthma [2]; lavage after 15 hours): significantly decreased
- recruitment of eosinophils (rat model of asthma [2]; lavage after 15 hours): effectively inhibited

Molecule: Nc1nc(N)c2ncn([C@H]3C[C@H](O)[C@@H](CO)O3)c2n1 [DAP, 2-amino-2-deoxyadenosine]
- relative toxicity ranking (lung resistance) [5, 7]: adenosine>2 amino-2 deoxyadenosine/DAP>rest
- relative toxicity ranking (lung resistance) [5, 8]: adenosine>N6-Methyl-2′deoxyadenosine>rest including DAP
- effect on lung resistance (% baseline) after intratracheal dosing ([5]; incremental doses 0.125 μg to 100 μg intratracheal, sensitized rats): does not significantly increase lung resistance
- inhibition of eosinophil recruitment induced by adenosine ([6]; 100 μg DAP followed by 100 μg adenosine 10 minutes later, lavage 15 hours later): completely inhibits the recruitment of eosinophils

Molecule: CNc1ncnc2c1ncn2[C@H]1C[C@H](O)[C@@H](CO)O1 [N6-Methyl-2′deoxyadenosine, N6-methyl-2′-deoxyadenosine]
- relative toxicity ranking (lung resistance) [5, 8]: adenosine>N6-Methyl-2′deoxyadenosine>rest including DAP

Molecule: Nc1ncnc2c1ncn2[C@@H]1O[C@H](CO)[C@@H](O)[C@H]1O [adenosine, reference compound]
- relative toxicity ranking (lung resistance) [5, 7]: adenosine>2 amino-2 deoxyadenosine/DAP>rest
- relative toxicity ranking (lung resistance) [5, 8]: adenosine>N6-Methyl-2′deoxyadenosine>rest including DAP
- dose at which lung resistance peaks ([5]; incremental intratracheal doses, sensitized rats): 5 µg
- effect on other cell types in lung lavage [6, 9]: without significantly affecting other cell types
- increase of eosinophil recruitment into the lungs [6, 9]: more than 10 fold
